Results reported in patent US9862690B2, “Treatment of pulmonary and other conditions” (University of Pittsburgh—of the Commonwealth System of …, priority 2013, dated 2018).

How the values were obtained:
[1] = system: LPS-induced acute lung injury in mice; assay: LPS-induced acute lung injury model; type: in vivo; settings: 25 mg/kg nebulized 30 min after LPS
Procedure: Induction of ALI by intratracheal injection of LPS (50 μg) was followed 30 min later by nebulization of PB141 (25 mg/kg) or vehicle (saline) and delivery to cage air via a micropump nebulizer. After a further 5.5 h, BAL fluid, plasma, and lung samples were obtained. (A) Total cell and (B) neutrophil number in BAL fluid; myeloperoxidase activity in (C) lung tissue and (D) BAL fluid; (E) microscopic examination following staining of BAL fluid; (F) H2O2 production; (G) nitrate concentration, and (H) malonyldialdehyde/protein ratio in lung. Plasma levels of (I) MIP-2, (J) IL-6, (K) TNF-α, and (L) KC. Data are representative of one of two independent experiments with n=5-8 mice per group; *** p<0.001.
Induction of ALI by intratracheal injection of LPS (50 μg) was followed 30 min later by nebulization of PB141 (25 mg/kg) or vehicle (saline) and delivery to cage air via a micropump nebulizer. After a further 5.5 h, BAL fluid and lung samples were obtained. (A) Protein concentration in BAL fluid. (B) Ratio of lung wet:dry weight. (C) Histological examination of the lung following H&E staining. Data are representative of one of two independent experiments with n=5-8 mice per group; *** p<0.001.
Induction of ALI by intratracheal injection of LPS (50 μg) was followed 30 min later by nebulization of PB141 (25 mg/kg) or vehicle (saline) and delivery to cage air via a micropump nebulizer. After another 5.5 h lungs were excised and DNA-binding activity of the transcription factor Nrf2 was determined. Data is representative of one of two independent experiments with n=4-6 mice per group; *** p<0.001.
Acute lung injury was induced by intratracheal injection of endotoxin (lipopolysaccharide; LPS) prepared from Escherichia coli 0111:B6 (Sigma-Aldrich; St. Louis, Mo.) into anesthetized mice. In other experiments, systemic sepsis was induced by intraperitoneal injection of endotoxin. Thirty minutes later PB141 (25 mg/kg) or vehicle (saline) was delivered to mice for 30 minutes via a micropump nebulizer (Buxco Research Systems, Wilmington, N.C.) fitted at the chamber inlet. Extent of lung injury after 5.5 h and systemic sepsis after 12 h were assessed by measuring lung tissue myeloperoxidase activity, polymorphonuclear neutrophil (PMN) count in bronchoalveolar lavage fluid, lung vascular permeability, pulmonary edema, and cytokine generation. Lung histology sections were assessed microscopically for evidence of inflammation and injury following hematoxylin and eosin (H&E) staining.

[2] = system: bronchial epithelial cells, THP cells, and alveolar macrophages; assay: Cigarette smoke extract exposure of cultured cells; type: cell-based, humans and mice; settings: pretreated 1 to 5 μM, then 10% cigarette smoke extract
Procedure: For further in vitro studies, bronchial epithelial cells, THP cells (obtained from American Type Culture Collection), and alveolar macrophages (isolated from bronchial lavage fluid of humans and mice) were cultured and exposed to 10% cigarette smoke extract (CSE) prepared by smoking two cigarettes into RPMI medium according to the Federal Trade Commission (FTC) protocol. In some experiments cells were pretreated with 1 to 5 μM PB141 before the cigarette smoke extract treatment. Pretreatment with PB141 decreased epithelial cell permeability, inflammatory chemokine and cytokine production, and ROS generation.

[3] = molecular target: T1, p65 subunit of NF-κB (Homo sapiens, UniProt Q04206); assay: LPS-induced NF-κB p65 DNA-binding activity in BEAS-2B cells; type: cell-based; settings: 1 h pre-treatment, then LPS 6 h
T1 construct: endogenous in cells; host or cells: BEAS-2B
Procedure: BEAS-2B cells were treated with varying concentrations of PB141 for 24 h, after which (A) Nrf2 activity was measured or (C) nuclear Nrf2 concentration was determined by Western blotting. (B) In other experiments cells were pretreated with varying concentrations of PB141 for 1 h, then with LPS (500 ng/ml) for 6 h. Cells were then isolated and activity of NF-κB was measured.
BEAS-2B cells were cultured in Dulbecco's modified Eagle's medium (DMEM) containing 10% heat-inactivated fetal bovine serum, penicillin, and streptomycin (100 IU/ml). Monolayer cultures were treated with different concentrations of PB141 for 24 h. Cells were then isolated and the DNA-binding activity of the antioxidant transcription factor Nrf2 was determined. The nuclear concentration of Nrf2 was also determined by Western blotting. […] In some experiments monolayer cultures were deprived of serum for 24 h, pre-treated with different concentrations of PB141 for 1 h, then exposed to LPS for 6 h. Nuclear proteins were prepared and were used to quantify DNA-binding activity of the p65 subunit of NF-κB.

T1 sequence (Q04206 whole entry): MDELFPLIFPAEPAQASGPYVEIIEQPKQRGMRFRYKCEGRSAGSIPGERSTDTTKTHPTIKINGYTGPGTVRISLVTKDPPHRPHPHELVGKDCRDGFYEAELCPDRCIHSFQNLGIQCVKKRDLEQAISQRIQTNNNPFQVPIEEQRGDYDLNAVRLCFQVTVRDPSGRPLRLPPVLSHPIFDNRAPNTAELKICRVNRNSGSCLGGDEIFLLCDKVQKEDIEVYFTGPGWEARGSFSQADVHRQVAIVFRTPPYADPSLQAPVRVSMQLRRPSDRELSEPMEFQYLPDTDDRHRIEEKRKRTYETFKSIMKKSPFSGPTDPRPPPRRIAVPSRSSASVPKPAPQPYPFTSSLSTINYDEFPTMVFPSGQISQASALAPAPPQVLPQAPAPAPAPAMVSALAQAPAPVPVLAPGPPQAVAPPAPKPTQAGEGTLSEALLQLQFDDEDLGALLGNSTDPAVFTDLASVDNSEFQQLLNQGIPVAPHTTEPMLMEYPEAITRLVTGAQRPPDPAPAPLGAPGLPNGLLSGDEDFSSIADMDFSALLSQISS

Compound: CC(=O)N[C@@H](CSC(CC(=O)CC(SC[C@H](NC(C)=O)C(=O)O)c1cnccn1)c1cnccn1)C(=O)O (stereo partly shown) [PB141]
- Cytokine generation (plasma MIP-2, IL-6, TNF-α, KC) ([1]; 5.5 h): reduced
- Edema (lung wet:dry weight) ([1]; 5.5 h): reduced
- Lung Nrf2 DNA-binding activity after LPS ([1]; 5.5 h): reverses the LPS-induced decrease
- Lung myeloperoxidase activity ([1]; 5.5 h): decreased
- Oxidant stress (H2O2, nitrate, malonyldialdehyde) ([1]; 5.5 h): reduced
- PMN count in BAL fluid ([1]; 5.5 h): decreased
- PMN infiltration into the alveolar space ([1]; 5.5 h): effectively prevented
- Lung injury seen histologically ([1]; H&E): Decreased lung injury
- Inflammatory chemokine and cytokine production [2]: decreased
- Phagocytic ability of mouse and human alveolar macrophages [2]: improved
- ROS generation [2]: decreased
- Inhibition of NF-κB activity at 1 μM ([3]; 1 μM): almost complete inhibition
- NF-κB activity (p65 DNA-binding) ([3]; different concentrations): inhibited NF-κB activity in a concentration-dependent manner
